Measured values as given in patent publication US20080255060A1, “Ester Linked Macrolides Useful For The Treatment of Microbial Infections” (priority 2004, published 2008).

Key:
Assay in all cases: MIC, standard microtiter broth serial dilution test
Format in all cases: cell-based
[1] = tested on: M. catarrhalis ATCC 0324; settings: Moraxella catarrhalis, ATCC0324
[2] = tested on: S. aureus Smith ATCC 0329; settings: Staphylococcus aureus, ATCC0329
[3] = tested on: H. influenzae ATCC 0529; settings: Haemophilus influenzae, ATCC0529
[4] = tested on: E. faecalis ATCC 0004; settings: Enterococcus faecalis, ATCC0004
[5] = tested on: S. pyogenes 0542; settings: Streptococcus pyogenes
[6] = tested on: S. pneumoniae 0541; settings: Streptococcus pneumoniae

Compound	MIC [1]	MIC [2]	MIC [3]	MIC [4]	MIC [5]	MIC [6]
CCOC(=O)c1cn(CC)c2ccc(C#CCN3CCN(CCC(=O)O[C@H]4[C@H](C)OC(O[C@H]5[C@H](C)[C@@H](OC6O[C@H](C)C[C@H](N(C)C)[C@H]6O)[C@](C)(OC)C[C@@H](C)C(=O)[C@H](C)[C@@H](O)[C@](C)(O)[C@@H](CC)OC(=O)[C@@H]5C)C[C@@]4(C)OC)CC3)cc2c1=O (some centres unmarked) [Example 3, 4″-O-(3-{4-[3-(3-Ethoxycarbonyl-1-ethyl-4-oxo-1,4-dihydro-quinolin-6-yl)-prop-2-ynyl]-piperazin-1-yl}-propionyl)-6-O-methyl-erythromycin A]	≤ 2 µg/mL	≤ 1 µg/mL	≤ 2 µg/mL	≤ 1 µg/mL	≤ 1 µg/mL	≤ 1 µg/mL
CC[C@H]1OC(=O)[C@H](C)[C@@H](O[C@H]2C[C@@](C)(OC)[C@@H](OC(=O)CCN3CCN(CC#Cc4ccc5c(c4)c(=O)c(C(=O)O)cn5CC)CC3)[C@H](C)O2)[C@H](C)[C@@H](O[C@@H]2O[C@H](C)C[C@H](N(C)C)[C@H]2O)[C@](C)(O)C[C@@H](C)CN(C)[C@H](C)[C@@H](OC)[C@]1(C)O [Example 4]	≤ 2 µg/mL	≤ 1 µg/mL	≤ 2 µg/mL	≤ 1 µg/mL	≤ 1 µg/mL	≤ 1 µg/mL
CC[C@H]1OC(=O)[C@H](C)[C@@H](O[C@H]2C[C@@](C)(OC)[C@@H](OC(=O)CCN3CCN(CCCc4ccc5c(c4)c(=O)c(C(=O)O)cn5CC)CC3)[C@H](C)O2)[C@H](C)[C@@H](O[C@@H]2O[C@H](C)C[C@H](N(C)C)[C@H]2O)[C@](C)(O)C[C@@H](C)CN(C)[C@H](C)[C@@H](OC)[C@]1(C)O [Example 5]	–	≤ 1 µg/mL	–	≤ 1 µg/mL	≤ 1 µg/mL	≤ 1 µg/mL
CC[C@H]1OC(=O)[C@H](C)[C@@H](O[C@H]2C[C@@](C)(OC)[C@@H](OC(=O)CCOCCOCCNc3cc4c(=O)c(C(=O)O)cn(C5CC5)c4cc3Cl)[C@H](C)O2)[C@H](C)[C@@H](O[C@@H]2O[C@H](C)C[C@H](N(C)C)[C@H]2O)[C@](C)(OC)C[C@@H](C)C(=O)[C@H](C)[C@@H](O)[C@]1(C)O [Example 7, 4″-O-(3-{2-[2-(3-Carboxy-7-chloro-1-cyclopropyl-4-oxo-1,4-dihydro-quinolin-6-ylamino)-ethoxy]-ethoxy}-propionyl)-6-O-methyl-erythromycin A]	–	≤ 1 µg/mL	–	≤ 1 µg/mL	≤ 1 µg/mL	≤ 1 µg/mL
CC[C@H]1OC(=O)[C@H](C)[C@@H](OC2C[C@@](C)(OC)[C@@H](OC(=O)CNC(=O)CCOCCNc3c(F)cc4c(=O)c(C(=O)O)cn(C5CC5)c4c3OC)[C@H](C)O2)[C@H](C)[C@@H](O[C@@H]2O[C@H](C)C[C@H](N(C)C)[C@H]2O)[C@](C)(O)C[C@@H](C)CN(C)[C@H](C)[C@@H]2OC(=O)O[C@]12C (some centres unmarked) [Example 14, 4″-O-(2-{3-[2-(3-Carboxy-6-fluoro-1-cyclopropyl-8-methoxy-4-oxo-1,4-dihydro-quinolin-7-ylamino)-ethoxy]-propionylamino}-acetyl)-azithromycin 11,12-cyclic carbonate]	≤ 2 µg/mL	≤ 1 µg/mL	≤ 2 µg/mL	≤ 1 µg/mL	≤ 1 µg/mL	≤ 1 µg/mL
CC[C@H]1OC(=O)[C@H](C)[C@@H](OC2C[C@@](C)(OC)[C@@H](OC(=O)CCNCCOCC#Cc3ccc4c(c3)c(=O)c(C(=O)O)cn4CC)[C@H](C)O2)[C@H](C)[C@@H](OC2O[C@H](C)C[C@H](N(C)C)[C@H]2O)[C@](C)(O)C[C@@H](C)CN(C)[C@H](C)[C@@H](OC)[C@]1(C)O (some centres unmarked) [Example 23, 11-O-Methyl-4″-O-(3-{2-[3-(3-Carboxy-1-ethyl-4-oxo-1,4-dihydro-quinolin-6-yl)-prop-2-ynyloxy]-ethylamino}-propionyl)-azithromycin]	≤ 2 µg/mL	≤ 1 µg/mL	≤ 2 µg/mL	≤ 1 µg/mL	≤ 1 µg/mL	≤ 1 µg/mL
CC[C@H]1OC(=O)[C@H](C)[C@@H](OC2C[C@@](C)(OC)[C@@H](OC(=O)CCNCCOCCCc3ccc4c(c3)c(=O)c(C(=O)O)cn4CC)[C@H](C)O2)[C@H](C)[C@@H](OC2O[C@H](C)C[C@H](N(C)C)[C@H]2O)[C@](C)(O)C[C@@H](C)CN(C)[C@H](C)[C@@H](OC)[C@]1(C)O (some centres unmarked) [Example 24, 11-O-Methyl-4″-O-(3-{2-[3-(3-Carboxy-1-ethyl-4-oxo-1,4-dihydro-quinolin-6-yl)-propoxy]-ethylamino}-propionyl)-azithromycin]	≤ 2 µg/mL	≤ 1 µg/mL	≤ 2 µg/mL	≤ 1 µg/mL	≤ 1 µg/mL	≤ 1 µg/mL
CC[C@H]1OC(=O)[C@H](C)[C@@H](O[C@H]2C[C@@](C)(OC)[C@@H](OC(=O)CCOCCOCCNc3cc4c(=O)c(C(=O)O)cn(C5CC5)c4cc3Cl)[C@H](C)O2)[C@H](C)[C@@H](O[C@@H]2O[C@H](C)C[C@H](N(C)C)[C@H]2O)[C@](C)(OC)C[C@@H](C)C(=O)[C@H](C)[C@H]2NC(=O)O[C@@]21C [Example 26, 4″-O-(3-{2-[2-(3-Carboxy-7-chloro-1-cyclopropyl-4-oxo-1,4-dihydro-quinolin-6-ylamino)-ethoxy]-ethoxy}-propionyl)-6-O-methyl-erythromycin A 11,12-cyclic carbamate]	≤ 2 µg/mL	≤ 1 µg/mL	≤ 2 µg/mL	≤ 1 µg/mL	≤ 1 µg/mL	≤ 1 µg/mL
CC[C@H]1OC(=O)[C@H](C)[C@@H](O[C@H]2C[C@@](C)(OC)[C@@H](OC(=O)CCOCCOCCNc3cc4c(cc3F)c(=O)c(C(=O)O)cn4C3CC3)[C@H](C)O2)[C@H](C)[C@@H](O[C@@H]2O[C@H](C)C[C@H](N(C)C)[C@H]2O)[C@](C)(OC)C[C@@H](C)C(=O)[C@H](C)[C@@H](O)[C@]1(C)O [Example 27, 4″-O-(3-{2-[2-(3-Carboxy-6-fluoro-1-cyclopropyl-4-oxo-1,4-dihydro-quinolin-7-ylamino)-ethoxy]-ethoxy}-propionyl)-6-O-methyl-erythromycin A]	≤ 2 µg/mL	≤ 1 µg/mL	≤ 2 µg/mL	≤ 1 µg/mL	≤ 1 µg/mL	≤ 1 µg/mL
CC[C@H]1OC(=O)[C@H](C)[C@@H](OC2C[C@@](C)(OC)[C@@H](OC(=O)CCOCCOCCOc3ccc4c(=O)c(C(=O)O)cn(C5CC5)c4c3)[C@H](C)O2)[C@H](C)[C@@H](OC2O[C@H](C)C[C@H](N(C)C)[C@H]2O)[C@](C)(O)C[C@@H](C)CN(C)[C@H](C)[C@@H](O)[C@]1(C)O (some centres unmarked) [Example 35, 4″-O-(3-{2-[2-(3-Carboxy-1-cyclopropyl-4-oxo-1,4-dihydro-quinolin-7-yloxy)-ethoxy]-ethoxy}-propionyl)-azithromycin]	≤ 2 µg/mL	≤ 1 µg/mL	≤ 2 µg/mL	≤ 1 µg/mL	≤ 1 µg/mL	≤ 1 µg/mL
CC[C@H]1OC(=O)[C@H](C)[C@@H](OC2C[C@@](C)(OC)[C@@H](OC(=O)CCNCCOCC#Cc3ccc4c(c3)c(=O)c(C(=O)O)cn4CC)[C@H](C)O2)[C@H](C)[C@@H](OC2O[C@H](C)C[C@H](N(C)C)[C@H]2O)[C@](C)(OC)C[C@@H](C)C(=O)[C@H](C)[C@@H](O)[C@]1(C)O (some centres unmarked) [Example 36, 4″-O-(3-{2-[3-(3-carboxy-1-ethyl-4-oxo-1,4-dihydro-quinolin-6-yl)-prop-2-ynyloxy]-ethylamino}-propionyl)-6-O-methyl-erythromycin A]	≤ 2 µg/mL	≤ 1 µg/mL	≤ 2 µg/mL	≤ 1 µg/mL	≤ 1 µg/mL	≤ 1 µg/mL
CC[C@H]1OC(=O)[C@H](C)[C@@H](OC2C[C@@](C)(OC)[C@@H](OC(=O)CCOCCOCCOc3ccc4c(=O)c(C(=O)O)cn(C5CC5)c4c3)[C@H](C)O2)[C@H](C)[C@@H](O[C@@H]2O[C@H](C)C[C@H](N(C)C)[C@H]2O)[C@](C)(OC)C[C@@H](C)C(=O)[C@H](C)[C@@H](O)[C@]1(C)O (some centres unmarked) [Example 38, 4″-O-(3-{2-[2-(3-Carboxy-1-cyclopropyl-4-oxo-1,4-dihydro-quinolin-7-yloxy)-ethoxy]-ethoxy}-propionyl)-6-O-methyl-erythromycin A]	≤ 2 µg/mL	≤ 1 µg/mL	≤ 2 µg/mL	≤ 1 µg/mL	≤ 1 µg/mL	≤ 1 µg/mL
CC[C@H]1OC(=O)[C@H](C)[C@@H](O[C@H]2C[C@@](C)(OC)[C@@H](OC(=O)CCOCCOCCNc3cc4c(=O)c(C(=O)O)cn(C5CC5)c4cc3N(C)C)[C@H](C)O2)[C@H](C)[C@@H](OC2O[C@H](C)C[C@H](N(C)C)[C@H]2O)[C@](C)(O)C[C@@H](C)CN(C)[C@H](C)[C@@H](O)[C@]1(C)O (some centres unmarked) [Example 48, 4″-O-(3-{2-[2-(3-Carboxy-1-cyclopropyl-7-dimethylamino-4-oxo-1,4-dihydro-quinolin-6-ylamino)-ethoxy]-ethoxy}-propionyl)azithromycin]	≤ 2 µg/mL	≤ 1 µg/mL	≤ 2 µg/mL	≤ 1 µg/mL	≤ 1 µg/mL	≤ 1 µg/mL
CC[C@H]1OC(=O)[C@H](C)[C@@H](O[C@H]2C[C@@](C)(OC)[C@@H](OC(=O)CCNCCOCCOCC#Cc3ccc4c(c3)c(=O)c(C(=O)O)cn4CC)[C@H](C)O2)[C@H](C)[C@@H](O[C@@H]2O[C@H](C)C[C@H](N(C)C)[C@H]2O)[C@](C)(O)C[C@@H](C)CN(C)[C@H](C)[C@@H](O)[C@]1(C)O [Example 62, 4″-O-[3-(2-{2-[3-(3-Carboxy-1-ethyl-4-oxo-1,4-dihydro-quinolin-6-yl)-prop-2-ynyloxy]-ethoxy}-ethylamino)-propionyl]-azithromycin]	≤ 2 µg/mL	≤ 1 µg/mL	≤ 2 µg/mL	≤ 1 µg/mL	≤ 1 µg/mL	≤ 1 µg/mL
